Data from patent publication US9150526B2, “Biaryl-propionic acid derivatives and their use as pharmaceuticals” (SANOFI, priority 2013, dated 2015).

These compounds were tested on Recombinant human cathepsin A (assay: Cathepsin A inhibitory activity (Bodipy FL-bradykinin substrate, microfluidic capillary electrophoresis)). Conditions: read-out: CATH A IC50.
Assay type: biochemical
Protocol: Pharmacological Tests a) Cathepsin a Inhibitory Activity
Recombinant human cathepsin A (residues 29-480, with a C-terminal 10-His tag; R&D Systems, #1049-SE) was proteolytically activated with recombinant human cathepsin L (R&D Systems, #952-CY). Briefly, cathepsin A was incubated at 10 μg/ml with cathepsin L at 1 μg/ml in activation buffer (25 mM 2-(morpholin-4-yl)-ethanesulfonic acid (MES), pH 6.0, containing 5 mM dithiothreitol (DTT)) for 15 min at 37° C.
The activated cathepsin A was diluted in assay buffer (25 mM MES, pH 5.5, containing 5 mM DTT) and mixed with the test compound (dissolved in assay buffer containing (v/v) 3% DMSO) or, in the control experiments, with the vehicle in a multiple assay plate. After incubation for 15 min at room temperature, as substrate then bradykinin carrying an N-terminal ®Bodipy FL (4,4-difluoro-5,7-dimethyl-4-bora-3a,4a-diaza-s-indacene-3-propionyl) label (JPT Peptide Technologies GmbH; dissolved in assay buffer) was added to the mixture. The final concentration of cathepsin A was 833 ng/ml and the final concentration of labeled bradykinin 2 μM. After incubation for 15 min at room temperature the reaction was stopped by the addition of stop buffer (130 mM 2-(4-(2-hydroxy-ethyl)-piperazin-1-yl)-ethanesulfonic acid, pH 7.4, containing (v/v) 0.013% ®Triton X-100, 0.13% Coating Reagent 3 (Caliper Life Sciences), 6.5% DMSO and 20 μM ebelactone B (Sigma, # E0886)).
Uncleaved substrate and product were then separated by a microfluidic capillary electrophoresis on a LabChip® 3000 Drug Discovery System (12-Sipper-Chip; Caliper Life Sciences) and quantified by determination of the respective peak areas. Substrate turnover was calculated by dividing product peak area by the sum of substrate and product peak areas, and the enzyme activity and the inhibitory effect of the test compound thus quantified.

IC50	Compound
160 nM	COc1ccc(Cl)cc1-c1cccc(C(CC(=O)O)c2nccs2)c1 (stereo not drawn) [compound 1]
132 nM	COc1ccc(C(C)C)cc1-c1cccc(C(CC(=O)O)c2nccs2)c1 (stereo not drawn) [compound 2]
160 nM	COc1ccc(F)cc1-c1cccc(C(CC(=O)O)c2nccs2)c1 (stereo not drawn) [compound 3]
119 nM	COc1ccc(C(C)(C)C)cc1-c1cccc(C(CC(=O)O)c2nccs2)c1 (stereo not drawn) [compound 4]
35 nM	COc1ccc(C(C)(C)C)cc1-c1cccc([C@H](CC(=O)O)c2nccs2)c1 [compound 5]
3380 nM	COc1ccc(C(C)(C)C)cc1-c1cccc([C@@H](CC(=O)O)c2nccs2)c1 [compound 6]
5 nM	COc1cccc(OC)c1-c1cc(F)cc(C(CC(=O)O)c2ncc(C)s2)c1 (stereo not drawn) [compound 7]
34 nM	COc1ccc(Cl)cc1-c1cc(Cl)cc(C(CC(=O)O)c2ncc(C)s2)c1 (stereo not drawn) [compound 8]
61 nM	COc1ccc(C(C)(C)C)cc1-c1cccc(C(CC(=O)O)c2nnc(C)o2)c1 (stereo not drawn) [compound 9]
7 nM	COc1cccc(OC)c1-c1cc(Cl)cc(C(CC(=O)O)c2ncc(C)s2)c1 (stereo not drawn) [compound 10]
51 nM	COc1ccc(C(C)(C)C)cc1-c1cccc([C@@H](CC(=O)O)c2ncco2)c1 [compound 11]
103 nM	COc1ccc(C(C)(C)C)cc1-c1cccc(C(CC(=O)O)c2ncco2)c1 (stereo not drawn) [compound 13]
66 nM	COc1cc(C)cc(OC)c1-c1cccc(C(CC(=O)O)c2nccs2)c1 (stereo not drawn) [compound 14]
44 nM	COc1cc(C)cc(OC)c1-c1cccc(C(CC(=O)O)c2ncc(C)s2)c1 (stereo not drawn) [compound 15]
49 nM	COc1cc(C)cc(OC)c1-c1cccc(C(CC(=O)O)c2ncco2)c1 (stereo not drawn) [compound 16]
154 nM	COc1ccccc1-c1cccc(C(CC(=O)O)c2nccs2)c1 (stereo not drawn) [compound 17]
530 nM	COc1ccc(C(C)(C)C)cc1-c1cccc(C(CC(=O)O)c2nc(C)c(C)s2)c1 (stereo not drawn) [compound 18]
657 nM	COc1ccc(Cl)cc1-c1cccc(C(CC(=O)O)c2nc(C)c(C)s2)c1 (stereo not drawn) [compound 19]
30 nM	COc1cccc(OC)c1-c1cccc(C(CC(=O)O)c2nccs2)c1 (stereo not drawn) [compound 20]
129 nM	COc1ccc(OC)c(-c2cccc(C(CC(=O)O)c3nccs3)c2)c1 (stereo not drawn) [compound 21]
134 nM	COc1ccc(C(F)(F)F)cc1-c1cccc(C(CC(=O)O)c2nccs2)c1 (stereo not drawn) [compound 22]
140 nM	COC(=O)c1ccc(OC)c(-c2cccc(C(CC(=O)O)c3nccs3)c2)c1 (stereo not drawn) [compound 23]
147 nM	COc1ccc(C)cc1-c1cccc(C(CC(=O)O)c2nccs2)c1 (stereo not drawn) [compound 24]
147 nM	CCOc1ccc(C)cc1-c1cccc(C(CC(=O)O)c2nccs2)c1 (stereo not drawn) [compound 25]
148 nM	COc1cccc(F)c1-c1cccc(C(CC(=O)O)c2nccs2)c1 (stereo not drawn) [compound 26]
156 nM	COc1ccc(F)c(F)c1-c1cccc(C(CC(=O)O)c2nccs2)c1 (stereo not drawn) [compound 27]

IC50	Compound
165 nM	COc1cccc(OC(C)C)c1-c1cccc(C(CC(=O)O)c2nccs2)c1 (stereo not drawn) [compound 28]
185 nM	COc1ccc(-c2cccc(C(CC(=O)O)c3nccs3)c2)c(OC)c1 (stereo not drawn) [compound 29]
201 nM	COc1cc(CO)ccc1-c1cccc(C(CC(=O)O)c2nccs2)c1 (stereo not drawn) [compound 30]
292 nM	COc1cccc(Cl)c1-c1cccc(C(CC(=O)O)c2nccs2)c1 (stereo not drawn) [compound 31]
307 nM	COc1ccc(O)cc1-c1cccc(C(CC(=O)O)c2nccs2)c1 (stereo not drawn) [compound 32]
333 nM	COc1ccc(CO)cc1-c1cccc(C(CC(=O)O)c2nccs2)c1 (stereo not drawn) [compound 33]
389 nM	COc1ccc(OC(F)(F)F)cc1-c1cccc(C(CC(=O)O)c2nccs2)c1 (stereo not drawn) [compound 34]
409 nM	CC(C)Oc1ccccc1-c1cccc(C(CC(=O)O)c2nccs2)c1 (stereo not drawn) [compound 35]
467 nM	COc1c(F)cc(F)cc1-c1cccc(C(CC(=O)O)c2nccs2)c1 (stereo not drawn) [compound 36]
503 nM	COc1cc(F)ccc1-c1cccc(C(CC(=O)O)c2nccs2)c1 (stereo not drawn) [compound 37]
590 nM	COc1cc(Cl)ccc1-c1cccc(C(CC(=O)O)c2nccs2)c1 (stereo not drawn) [compound 38]
618 nM	COc1ccc(C#N)cc1-c1cccc(C(CC(=O)O)c2nccs2)c1 (stereo not drawn) [compound 39]
844 nM	COc1c(C)cccc1-c1cccc(C(CC(=O)O)c2nccs2)c1 (stereo not drawn) [compound 40]
950 nM	COc1cccc(-c2cccc(C(CC(=O)O)c3nccs3)c2)c1OC (stereo not drawn) [compound 41]
1040 nM	COc1c(F)cccc1-c1cccc(C(CC(=O)O)c2nccs2)c1 (stereo not drawn) [compound 42]
1230 nM	O=C(O)CC(c1cccc(-c2ccccc2OC(F)(F)F)c1)c1nccs1 (stereo not drawn) [compound 43]
1280 nM	COc1c(Cl)cccc1-c1cccc(C(CC(=O)O)c2nccs2)c1 (stereo not drawn) [compound 44]
1380 nM	COc1cc(C(N)=O)ccc1-c1cccc(C(CC(=O)O)c2nccs2)c1 (stereo not drawn) [compound 45]
1530 nM	COc1cc(OC(F)(F)F)ccc1-c1cccc(C(CC(=O)O)c2nccs2)c1 (stereo not drawn) [compound 46]
1750 nM	COc1cccc(C#N)c1-c1cccc(C(CC(=O)O)c2nccs2)c1 (stereo not drawn) [compound 47]
2280 nM	COc1cc(C(F)(F)F)ccc1-c1cccc(C(CC(=O)O)c2nccs2)c1 (stereo not drawn) [compound 48]
7000 nM	COc1c(-c2cccc(C(CC(=O)O)c3nccs3)c2)cccc1C(F)(F)F (stereo not drawn) [compound 49]
108 nM	COc1ccc(Cl)cc1-c1cccc(C(CC(=O)O)c2nnc(C)o2)c1 (stereo not drawn) [compound 50]
11 nM	COc1cccc(OC)c1-c1cccc(C(CC(=O)O)c2ncc(C)s2)c1 (stereo not drawn) [compound 51]
56 nM	COc1ccc(OC)c(-c2cccc(C(CC(=O)O)c3ncc(C)s3)c2)c1OC (stereo not drawn) [compound 52]
85 nM	COc1ccc(C)cc1-c1cccc(C(CC(=O)O)c2ncc(C)s2)c1 (stereo not drawn) [compound 53]

IC50	Compound
94 nM	COc1ccc(OC)c(-c2cccc(C(CC(=O)O)c3ncc(C)s3)c2)c1 (stereo not drawn) [compound 54]
96 nM	COc1ccc(F)cc1-c1cccc(C(CC(=O)O)c2ncc(C)s2)c1 (stereo not drawn) [compound 55]
97 nM	COc1ccc(C(C)C)cc1-c1cccc(C(CC(=O)O)c2ncc(C)s2)c1 (stereo not drawn) [compound 56]
131 nM	COc1ccc(CO)cc1-c1cccc(C(CC(=O)O)c2ncc(C)s2)c1 (stereo not drawn) [compound 57]
155 nM	COc1cccc(Cl)c1-c1cccc(C(CC(=O)O)c2ncc(C)s2)c1 (stereo not drawn) [compound 58]
171 nM	COc1cccc(F)c1-c1cccc(C(CC(=O)O)c2ncc(C)s2)c1 (stereo not drawn) [compound 59]
269 nM	COc1ccc(OC(F)(F)F)cc1-c1cccc(C(CC(=O)O)c2ncc(C)s2)c1 (stereo not drawn) [compound 60]
367 nM	COc1c(F)cc(F)cc1-c1cccc(C(CC(=O)O)c2ncc(C)s2)c1 (stereo not drawn) [compound 61]
262 nM	COc1ccc(Cl)cc1-c1cccc(C(CC(=O)O)c2ncc(C)s2)c1 (stereo not drawn) [compound 62]
1170 nM	COc1ccc(F)cc1-c1ccc(OC)c(C(CC(=O)O)c2ncc(C)s2)c1 (stereo not drawn) [compound 63]
49 nM	COc1ccc(C(C)C)cc1-c1cccc(C(CC(=O)O)c2nnc(C)o2)c1 (stereo not drawn) [compound 64]
3050 nM	COc1ccc(Cl)cc1-c1ccc(OC)c(C(CC(=O)O)c2ncc(C)s2)c1 (stereo not drawn) [compound 65]
4410 nM	COc1ccccc1-c1ccc(OC)c(C(CC(=O)O)c2ncc(C)s2)c1 (stereo not drawn) [compound 66]
9690 nM	COc1ccc(C)cc1-c1ccc(OC)c(C(CC(=O)O)c2ncc(C)s2)c1 (stereo not drawn) [compound 67]
16 nM	COc1cccc(F)c1-c1cc(Cl)cc(C(CC(=O)O)c2ncc(C)s2)c1 (stereo not drawn) [compound 71]
18 nM	COc1ccc(OC)c(-c2cc(Cl)cc(C(CC(=O)O)c3ncc(C)s3)c2)c1OC (stereo not drawn) [compound 72]
19 nM	COc1cc(C)cc(OC)c1-c1cc(Cl)cc(C(CC(=O)O)c2ncc(C)s2)c1 (stereo not drawn) [compound 74]
21 nM	COc1ccccc1-c1cc(Cl)cc(C(CC(=O)O)c2ncc(C)s2)c1 (stereo not drawn) [compound 75]
28 nM	COc1ccc(OC)c(-c2cc(Cl)cc(C(CC(=O)O)c3ncc(C)s3)c2)c1 (stereo not drawn) [compound 76]
29 nM	COc1ccc(CO)cc1-c1cc(Cl)cc(C(CC(=O)O)c2ncc(C)s2)c1 (stereo not drawn) [compound 77]
37 nM	COc1ccc(F)c(F)c1-c1cc(Cl)cc(C(CC(=O)O)c2ncc(C)s2)c1 (stereo not drawn) [compound 78]
38 nM	COc1ccc(F)cc1-c1cc(Cl)cc(C(CC(=O)O)c2ncc(C)s2)c1 (stereo not drawn) [compound 79]
47 nM	CCOc1ccccc1-c1cc(Cl)cc(C(CC(=O)O)c2ncc(C)s2)c1 (stereo not drawn) [compound 80]
52 nM	COc1ccc(C)cc1-c1cc(Cl)cc(C(CC(=O)O)c2ncc(C)s2)c1 (stereo not drawn) [compound 81]
52 nM	COc1cccc(CO)c1-c1cc(Cl)cc(C(CC(=O)O)c2ncc(C)s2)c1 (stereo not drawn) [compound 82]
53 nM	COc1ccc(-c2cc(Cl)cc(C(CC(=O)O)c3ncc(C)s3)c2)c(OC)c1 (stereo not drawn) [compound 83]
